{
  "source": "patent US11318141B2",
  "about": "“Methods and compositions related to STK1-targeted small molecules as antibiotic resistance breakers” (Ohio State Innovation Foundation, priority 2017, dated 2022)",
  "key": {"[1]": {"test_system": "S. aureus MW2-WT, MW2ΔSTK1 and MW2ΔSTP1 colonies", "experiment": "Colony hemolysis pattern on TSA blood agar plates", "format": "cell-based, Staphylococcus aureus", "conditions": "50 μM Inh2-B1, MW2-WT, MW2ΔSTK1 or MW2ΔSTP1", "description": "See the increased hemolysis around the colonies of the MW2ΔSTK1 mutant and absence of hemolysis around those of MW2ΔSTP1 mutant as depicted in the enlarged portion of certain representative colonies shown under each panel of the strain. A one centimeter bar is included to facilitate the determination of the relative size of colonies and corresponding hemolytic zones around them."}, "S. aureus MW2-WT": {"test_system": "S. aureus MW2-WT", "experiment": "microbe, parasite or virus in culture", "format": "cell-based, Staphylococcus aureus", "conditions": "E-test, 50 μM Inh2-B1, 6 antibiotics"}, "Detroit 562 cells [2]": {"test_system": "Detroit 562 cells", "experiment": "MTT cell proliferation assay", "format": "cell-based, human", "conditions": "even at 100 μM, 24 h", "description": "(§1) Impact of Inh2-B1 on cell proliferation was determined by MTT (3-[4,5-dimethylthiazol-2-yl]-2,5 diphenyl tetrazolium bromide)-based assay using Roche Colorimetric proliferation assay kit. Cell lines mentioned above were grown in 96-well tissue culture plates in the CO2 incubator at 37° C. The cells were treated with Inh2-B1 as described above in a final volume of 100 μl for 24 h. At the end of incubation, tissue culture medium from each well was removed and replaced with fresh 100 μl of the medium containing MTT solution (0.5 mg/ml) and further incubated for 4 h. The purple color of formazan salt crystals formed in each well was solubilized with the addition of 100 μl of 10% SDS solution in 0.01M HCl and further incubating for 10-12 h. The solubilized formazan product in each well was spectrophotometrically analyzed using a microtiter plate reader (Molecular Devices, 570 nm). Absorbance values of wells containing MTT reagents without cells and the untreated cultured cells with MTT reagents were considered as the background and negative controls. All tests were performed in triplicate wells. The average background value obtained from 10 wells was subtracted from the test values, and the corrected values obtained from untreated and treated cells were statistically analyzed by Student's test. P<0.05 was treated as a significant difference."}, "BEAS-2B cells [3]": {"test_system": "BEAS-2B cells", "experiment": "MTT cell proliferation assay", "format": "cell-based, human", "conditions": "24 h", "description": "as §1"}, "[4]": {"test_system": "S. aureus MW2ΔSTK1 biofilms", "experiment": "Biofilm formation, crystal violet stain method", "format": "cell-based, Staphylococcus aureus", "conditions": "25 μM, further 48 h"}, "[5]": {"test_system": "cell wall hydrolase genes in S. aureus MW2-WT", "experiment": "qRT-PCR mRNA expression of cell wall hydrolase genes", "format": "cell-based, Staphylococcus aureus", "conditions": "treated MW2-WT vs untreated", "description": "The late log phase-grown S. aureus strains MW2 wild-type, and isogenic ΔSTK1 and ΔSTP1 mutant strains, as well as S. aureus MW2 strain treated with 25 μM Inh2-B1 for 4 h, were subjected to lysostaphin treatment to obtain whole cell lysate. Total RNA from the resulting lysate was first extracted by TRIZOL™ (Invitrogen/Thermo) and treated with RNase-free DNaseI. High-quality total RNA (RIN>7.0, and 260/280 and 260/230 ratios >1.8) was then extracted by using RNA purification kit (Norgen, Canada) per manufacturer's instructions and confirmed by an Agilent 2100 Bioanalyzer (Agilent Technologies, Palo Alto, Calif.). The first-strand cDNA from the total RNA was generated, and relative mRNA concentration was quantitated using SYBR Green qRT-PCR master mix and specific primers, using a Light Cycler® 480 real-time PCR machine (Table 2). The results obtained for all samples (three biological replicates each in triplicates) were normalized to corresponding values of 16S rRNA. All results including relative fold-changes in the mRNA expression (mutant vs. wild-type or treated vs. nontreated) for individual genes were analyzed using Exor4 software (Roche Applied Science). Changes in expression ratios by more than 2-fold (up- or down-regulation) were considered as significant."}, "Detroit 562 cells [6]": {"test_system": "Detroit 562 cells", "experiment": "LDH release cytotoxicity assay", "format": "cell-based, human", "conditions": "1.56-100 μM, 24 h", "description": "(§2) Various concentrations (1.56-100 μM) of the small molecule compounds Inh2-B1 were tested for their cytotoxicity by incubating them for 24 h in the cell lines mentioned above. The cytotoxicity of compounds was determined by measuring the activity of lactate dehydrogenase (LDH) released from the damaged cells during incubation. The LDH assay was performed in triplicate wells. At the end of incubation, the plates were lightly centrifuged, and the culture supernatants were examined for the presence of LDH activity using Cytotoxicity Detection Kit (Promega) per the manufacturer's instructions. LDH activity was detected spectrophotometrically (Molecular device, 490 nm) and normalized to the total LDH activity (100%) in cell lysate of the untreated cells. Background value obtained with untreated culture supernatant was subtracted before data evaluation."}, "BEAS-2B cells [7]": {"test_system": "BEAS-2B cells", "experiment": "LDH release cytotoxicity assay", "format": "cell-based, human", "conditions": "1.56-100 μM, 24 h", "description": "as §2"}, "S. aureus MW2 wild-type": {"test_system": "S. aureus MW2 wild-type", "experiment": "Serial passage at suboptimal dose (10 generations), stk1 PCR and DNA sequencing", "format": "cell-based, Staphylococcus aureus", "conditions": "25 μM Inh2-B1 alone or with 3 μM Ceftriaxone or 3 μM Cefotaxime, 10 generations", "description": "Since the STK1 is not essential for bacterial survival and its absence results in retardation of growth, an end-point bactericidal assay was done, employing the Checkerboard titration method followed by a time-to-kill assay using the broth dilution method. The 96-well plate-based checkerboard titration assays were performed using the fixed number of CFUs of MW2 strain, and the survival of the bacteria was measured on solid agar plates as an end-point result. […] The cut-off value to designate clinical isolates of S. aureus for antibiotics, including Ceftriaxone (TX) and Cefotaxime (CT) as susceptible, is less than 4 μg/ml (i.e., <4.8 μM of TX, and <7 μM of CT). […] CFU counts of MW2-WT grown in the presence of various concentrations of Inh2-B1 were examined over a period of 16 h. […] Similarly, it was also determined CFU counts of MW2-WT and MW2ΔSTK1 strains each grown in the absence or the presence of 50 μM of Inh2-B1 and 1.5 μM Ceftriaxone (1 μg/ml) or […] Cefotaxime (1 μg/ml) for 16 h employing the broth dilution method. […] Further, to address whether MW2 or STK1 could become refractory to a potential combined therapy, the S. aureus MW2 wild-type strain was grown in the presence of suboptimal dose of Inh2-B1 alone and combination with Ceftriaxone and Cefotaxime (25 μM Inh2-B1 and 3 μM of Ceftriaxone or 3 μM Cefotaxime) for consecutive 10 generations."}},
  "data": [
    {"smiles": "COC(=O)c1ccc2c(=O)[nH]c3c(C(=O)Nc4ccccc4)sc(=S)n3c2c1", "note": "[Inh2-B1, Methyl 5-oxo-3-(phenylcarbamoyl)-1-thioxo-4,5dihydro[1,3]thiazolo[3,4-a]quinazoline-8-carboxylate]", "values": [
      {"measurement": "hemolysis pattern of colonies", "setting": "[1]", "result": "did not show any changes in the hemolysis pattern"},
      {"measurement": "effect on susceptibility patterns of antibiotics other than cell wall acting ones", "setting": "S. aureus MW2-WT", "result": "did not change susceptibility patterns"},
      {"measurement": "effect on cell proliferation (MTT)", "setting": "Detroit 562 cells [2]", "result": "did not affect cell proliferation"},
      {"measurement": "cell proliferation inhibition (MTT)", "setting": "BEAS-2B cells [3]; 50 μM", "result": "~20", "unit": "%"},
      {"measurement": "cell proliferation inhibition (MTT)", "setting": "BEAS-2B cells [3]; 100 μM", "result": "~40", "unit": "%"},
      {"measurement": "effect on preformed biofilms", "setting": "[4]", "result": "did not affect biofilms of MW2ΔSTK1"},
      {"measurement": "expression of cell wall hydrolase-encoding genes", "setting": "[5]", "result": "down-regulation of cell wall hydrolase-encoding genes"},
      {"measurement": "lysis (LDH release)", "setting": "Detroit 562 cells [6]", "result": "less than 5%"},
      {"measurement": "cytotoxicity (LDH release)", "setting": "BEAS-2B cells [7]", "result": "~15", "unit": "%"},
      {"measurement": "changes in the stk1 gene of the passaged strain", "setting": "S. aureus MW2 wild-type", "result": "did not show any changes in the stk1 gene"}
    ]}
  ]
}
